Our source for the IC50 values is patent publication US9981916B2 (Genentech, Inc., priority 2013, dated 2018).

This test has as its target T1, RORc ligand binding domain (Homo sapiens, UniProt P51449).
T1 construct: host or cells: E. coli
T1 sequence (P51449 269-508 limits assumed): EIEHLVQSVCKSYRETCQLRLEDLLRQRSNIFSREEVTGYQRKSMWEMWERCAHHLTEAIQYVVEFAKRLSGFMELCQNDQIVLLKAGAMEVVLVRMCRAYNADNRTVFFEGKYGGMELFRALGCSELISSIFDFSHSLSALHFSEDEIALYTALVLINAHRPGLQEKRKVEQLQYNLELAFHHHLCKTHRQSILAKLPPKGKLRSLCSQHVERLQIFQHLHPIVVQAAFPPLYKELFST
Description: In vitro RORc ligand binding assay (25-[3H]hydroxycholesterol displacement, filter binding). To be noted: 6 nM 25-[3H]hydroxycholesterol, 0.6 ug/mL RORc receptor, 3 h at 25° C. How it is done:
Example 17: In Vitro RORc Ligand Binding Assay
This assay was used to determine a compound's potency in inhibiting activity of RORc by determining, Kiapp, IC50, or percent inhibition values.
On day of the assay, 100 uL of 0.05% CHAPS (in deionized H2O) was added to all wells of the GFB Unifilter plate and allowed soak for 1 h. A wash buffer of 50 mM HEPES (pH 7.4), 150 mM NaCl, and 5 mM MgCl2 was prepared to wash the filter plate. To prepare an assay buffer, BSA was added to the wash buffer to reach 0.01% and DTT was added to reach 1 mM.
For IC50 mode, 10 mM compound stocks were serially diluted in DMSO with DMSO to give 20× required final concentration in DMSO (15 uL compound+30 uL DMSO). The 20× compound stocks were diluted in DMSO with Assay Buffer 4-fold to reach 5× the final test concentration in 25% DMSO (10 uL compound+30 uL Assay Buffer). Solutions were mixed by aspiration several times with a pipette set on 50 uL volume. For the assay, 10 uL of 5× compound stock solutions in 25% DMSO were added to the assay plate in duplicate.
For two point screening, 10 mM stock compound solutions were diluted in DMSO to obtain 200 uM (20× the high test concentration) and then diluted 10-fold further to reach 20 uM (20× the low test concentration). The 20× stocks were diluted 4-fold with Assay Buffer (10 uL compound+30 uL Assay Buffer) to reach 5× the test concentrations (50 uM and 5 uM) and 10 uL were added to two assay plates for the duplicate wells. With each concentration tested on 2 plates, each set of 80 compounds used 4 assay plates (1 uM and 10 uM, with n=2).
25-hydroxycholesterol (1 uM) was used to determine the level of NSB signal is prepared in DMSO as for compounds above, then diluted in Assay Buffer to give a final concentration of 5 uM. For 25-hydroxycholesterol in 25% DMSO/75% Assay Buffer; 10 uL per well was used for NSB samples. Wells for Total Binding and No Receptor sample determination contained 10 uL of 25% DMSO/75% Assay Buffer per well.
25-[^3H]hydroxycholesterol was diluted in Assay Buffer to obtain 15 nM and vortex to mix. Add 20 uL to all wells to reach 6 nM final concentration in the assay.
Stock receptor solution was diluted in assay buffer to obtain 1.5 ug/mL in Assay Buffer. 20 uL was added to all wells. For No Receptor samples, 20 uL Assay Buffer was substituted for receptor solution.
Assay plates were 96-well polypropylene V-bottom plates. 10 uL of 5× compound in 25% DMSO/75% Assay Buffer was added to Test wells. 10 uL of 25% DMSO/75% Assay Buffer was added to Total Binding or No Receptor wells. 10 uL of 5 uM 25-hydroxycholesterol in 25% DMSO/75% Assay Buffer was added to NSB wells. 20 uL of 15 nM 25-[^3H]hydroxycholesterol prepared in Assay Buffer was added to all wells. 20 uL of 1.5 ug/mL RORc receptor was added to wells (or […] Assay Buffer to No R wells). Following addition to the wells, the plates were incubated 3 h at 25° C.
Using a Packard Filtermate Harvester, the filter plate were washed 4 times following transfer of the incubated samples. Plates were dry-filtered completely (2 h at 50° C. or overnight at room temperature). 50 uL Microscint 0 was added to all wells and read on Topcount protocol Inverted.
Final concentrations were as follows: 50 mM HEPES buffer (pH 7.4); 150 mM NaCl; 1 mM DTT; 5 mM MgCl2; 0.01% BSA; 5% DMSO; 0.6 ug/mL RORc receptor; 6 nM 25-[^3H]hydroxycholesterol. For NSB wells, 1 uM 25-hydroxycholesterol was also present.

For orientation: IC50 means the midpoint of a concentration-inhibition curve. A high value points to weaker potency.

Regarding `Cc1ocnc1[C@@]12CC[C@@H](c3cc(-c4c(F)cccc4F)nnc31)C2(C)C` [Example 193, 4-((5R,8S)-3-(2,6-difluorophenyl)-9,9-dimethyl-5,6,7,8-tetrahydro-5,8-methanocinnolin-8-yl)-5-methyloxazole], the IC50 came out at 68 nM.
Take `CN(C)[C@@]12CC[C@@H](c3cc(-c4ccccc4F)nnc31)C2(C)C` [Example 90, (5R,8R)-3-(2-fluorophenyl)-N,N,9,9-tetramethyl-6,7-dihydro-5,8-methanocinnolin-8(5H)-amine]: the IC50 came out at 192 nM.
To `CN(C)C(=O)C[C@]12CC[C@H](c3cc(-c4ccccc4F)nnc31)C2(C)C` [Example 36, 2-[(5S,8S)-3-(2-fluorophenyl)-9,9-dimethyl-6,7-dihydro-5,8-methanocinnolin-8(5H)-yl]-N,N-dimethylacetamide] belongs 5170 nM; to `CCN(C[C@]12CC[C@H](c3cc(-c4c(F)cccc4F)nnc31)C2(C)C)C(=O)CCNC(N)=O` [Example 343, N-(((5S,8R)-3-(2,6-difluorophenyl)-9,9-dimethyl-5,6,7,8-tetrahydro-5,8-methanocinnolin-8-yl)methyl)-N-ethyl-3-ureidopropanamide], 32 nM; to `CC1(C)[C@H]2CC[C@]1(C#N)c1nnc(-c3c(F)cccc3F)cc12` [Example 78, (5R,8R)-3-(2,6-difluorophenyl)-9,9-dimethyl-6,7-dihydro-5,8-methanocinnoline-8(5H)-carbonitrile], 925 nM.
Compound `CC1(C)[C@H]2CC[C@]1(C)c1nnc(Oc3c(F)cccc3Cl)cc12` [Example 97, (5R,8S)-3-(2-chloro-6-fluorophenoxy)-8,9,9-trimethyl-5,6,7,8-tetrahydro-5,8-methanocinnoline] came in with an IC50 of 87 nM. Against the preceding compound, the IC50 is about 11-fold lower.
Regarding `CC1(C)[C@H]2CC[C@]1(CN(CCC#N)C(=O)CO)c1nnc(-c3c(F)cccc3F)cc12` [Example 316, N-(2-cyanoethyl)-N-(((5R,8S)-3-(2,6-difluorophenyl)-9,9-dimethyl-5,6,7,8-tetrahydro-5,8-methanocinnolin-8-yl)methyl)-2-hydroxyacetamide], the IC50 is 233 nM.
In the case of `Cc1ncoc1[C@@]12CC[C@@H](c3cc(-c4c(F)cccc4F)nnc31)C2(C)C` [Example 118, (5R,8R)-3-(2,6-difluorophenyl)-9,9-dimethyl-8-(4-methyl-1,3-oxazol-5-yl)-5,6,7,8-tetrahydro-5,8-methanocinnoline] it was 134 nM; in that of `CC1(C)[C@@H]2CC[C@@]1(C(=O)NCc1ccc(F)cc1)c1nnc(-c3ccccc3F)cc12` [Example 133, (5S,8S)-N-(4-fluorobenzyl)-3-(2-fluorophenyl)-9,9-dimethyl-5,6,7,8-tetrahydro-5,8-methanocinnoline-8-carboxamide], 876 nM; in that of `Cc1noc(C[C@@]23CC[C@@H](c4cc(-c5c(F)cccc5F)nnc42)C3(C)C)n1` [Example 75, (5R,8R)-3-(2,6-difluorophenyl)-9,9-dimethyl-8-[(3-methyl-1,2,4-oxadiazol-5-yl)methyl]-5,6,7,8-tetrahydro-5,8-methanocinnoline], 89 nM.
To `C[C@H](O)C(=O)N(CCC#N)C[C@@]12CC[C@@H](c3cc(-c4c(F)cccc4F)nnc31)C2(C)C` [Example 324, (S)-N-(2-cyanoethyl)-N-(((5R,8S)-3-(2,6-difluorophenyl)-9,9-dimethyl-5,6,7,8-tetrahydro-5,8-methanocinnolin-8-yl)methyl)-2-hydroxypropanamide] belongs 732 nM.
To `CC1(C)[C@H]2CC[C@]1(c1ccnn1CCC#N)c1nnc(-c3c(F)cccc3F)cc12` [Example 276, 3-(5-((5R,8S)-3-(2,6-difluorophenyl)-9,9-dimethyl-5,6,7,8-tetrahydro-5,8-methanocinnolin-8-yl)-1H-pyrazol-1-yl)propanenitrile] belongs 466 nM; to `CC1(C)[C@@H]2CC[C@@]1(Cc1noc(CO)n1)c1nnc(-c3ccccc3F)cc12` [Example 45, (3-{[(5S,8S)-3-(2-fluorophenyl)-9,9-dimethyl-6,7-dihydro-5,8-methanocinnolin-8(5H)-yl]methyl}-1,2,4-oxadiazol-5-yl)methanol], 756 nM; to `CC(=O)N(CCO)C[C@@]12CC[C@@H](c3cc(-c4c(F)cccc4F)nnc31)C2(C)C` [Example 289, N-(((5R,8S)-3-(2,6-difluorophenyl)-9,9-dimethyl-5,6,7,8-tetrahydro-5,8-methanocinnolin-8-yl)methyl)-N-(2-hydroxyethyl)acetamide], 258 nM.
In the case of `CNC(=O)C1CN(C(=O)[C@@]23CC[C@@H](c4cc(-c5ccccc5F)nnc42)C3(C)C)CCO1` (stereo partly drawn) [Example 180, 4-((5R,8R)-3-(2-fluorophenyl)-9,9-dimethyl-5,6,7,8-tetrahydro-5,8-methanocinnoline-8-carbonyl)-N-methylmorpholine-2-carboxamide], the IC50 is 3810 nM.
In the case of `C[C@H]1CN(C[C@@]23CC[C@@H](c4cc(-c5c(F)cccc5F)nnc42)C3(C)C)C(=O)O1` [Example 315, (S)-3-(((5R,8S)-3-(2,6-difluorophenyl)-9,9-dimethyl-5,6,7,8-tetrahydro-5,8-methanocinnolin-8-yl)methyl)-5-methyloxazolidin-2-one] it was 350 nM; in that of `CC1(C)[C@H]2CC[C@]1(c1nnc(N)o1)c1nnc(-c3c(F)cccc3F)cc12` [Example 255, 5-((5R,8R)-3-(2,6-difluorophenyl)-9,9-dimethyl-5,6,7,8-tetrahydro-5,8-methanocinnolin-8-yl)-1,3,4-oxadiazol-2-amine], 822 nM.
In the case of `COCc1nc(C[C@@]23CC[C@@H](c4cc(-c5c(F)cccc5F)nnc42)C3(C)C)no1` [Example 62, (5R,8R)-3-(2,6-difluorophenyl)-8-{[5-(methoxymethyl)-1,2,4-oxadiazol-3-yl]methyl}-9,9-dimethyl-5,6,7,8-tetrahydro-5,8-methanocinnoline] it was 129 nM.
To `CC1(C)[C@H]2C=C[C@]1(C)c1nnc(-c3c(F)cccc3F)cc12` [Example 126, (5R,8S)-3-(2,6-difluorophenyl)-8,9,9-trimethyl-5,8-dihydro-5,8-methanocinnoline] belongs 340 nM.
Turning to `CC1(C)[C@@H]2CC[C@@]1(Cn1ccnc1)c1nnc(-c3ccccc3F)cc12` [Example 17, (5S,8R)-3-(2-fluorophenyl)-8-(1H-imidazol-1-ylmethyl)-9,9-dimethyl-5,6,7,8-tetrahydro-5,8-methanocinnoline], the IC50 was 3170 nM.
In the case of `CC1(C)[C@@H]2CC[C@@]1(N1CCNC1=O)c1nnc(-c3c(F)cccc3F)cc12` [Example 252, 1-((5S,8S)-3-(2,6-difluorophenyl)-9,9-dimethyl-5,6,7,8-tetrahydro-5,8-methanocinnolin-8-yl)imidazolidin-2-one] it was 1580 nM; in that of `Cc1nnc(NC(=O)[C@]23CC[C@H](c4cc(-c5c(F)cccc5F)nnc42)C3(C)C)o1` [Example 84, (5S,8S)-3-(2,6-difluorophenyl)-9,9-dimethyl-N-(5-methyl-1,3,4-oxadiazol-2-yl)-6,7-dihydro-5,8-methanocinnoline-8(5H)-carboxamide], 1010 nM.
